Assay results from patent US20180311340A1, “NEW ADJUVANT AND VACCINE COMPOSITION CONTAINING THE SAME” (priority 2015, published 2018).
“Also recorded” adds a separate entry of the source.

Key:
PCSK9 antigenic peptide = assay: Immunogenicity study of PCSK9 vaccine; humoral response by ELISA; assay type: in vivo, mice; conditions: beta-sitosterol used along with alum; statement on Table 6
Method: The results are measured in ELISA units.
PCSK9 vaccine was prepared as described in WIPO publication WO 2011/027257. Here, ‘VR_9.5’ as decribed in WO 2011/027257 has been used as PCSK9 peptide for the current experiment. Other disclosed PCSK9 peptide can also be used as PCSK9 construct. The prepared PCSK9 construct was conjugated with diphtheria toxoid as an immunogenic carrier. The said preparation was used as an antigen preparation for further study. The conjugated PCSK9 antigen was formulated with alum and beta-sitosterol. […] Blood samples were collected at day 63 for the analysis of humoral response by ELISA. Humoral response analysed by ELISA is shown in below table. […] Table 6 provided here below for the results obtained by ELISA.

[1] = tested on: Influenza A/Singapore/6/86(H1N1); assay: Immunogenicity study of influenza virosome with flavonoids; humoral response by ELISA; assay type: in vivo; conditions: Balb/c mice, subcutaneous, 1 μg Influenza A virosome with 1 or 10 μg adjuvant, day 0 and 21, blood after 35 days; compared to other analysed flavonoids and virosomes without adjuvant

With `CC[C@H](CC[C@@H](C)[C@H]1CC[C@H]2[C@@H]3CC=C4C[C@@H](O)CC[C@]4(C)[C@H]3CC[C@]12C)C(C)C` [beta-sitosterol] the “immune response against PCSK9 antigenic peptide” value (PCSK9 antigenic peptide) was “higher immune response; also recorded: synergistic effect” and the “immune response (serum titers of total IgG, IgG2a and IgG1 antibody, FIG. 1-3)” value [1] was “higher immune response”.
